Test results as given in patent publication US20060257481A1, “Sustained release formulation and dosing schedule of leukotriene synthesis inhibitor for human therapy” (deCODE Genetics ehf., priority 2005, published 2006).
Values joined by “and” are separate entries in the source; they are usually repeats but may differ in a detail not shown here. Equal values may be shown once.

What was measured:
[1] = Effect of a high fat meal on DG-031 pharmacokinetics; format: in vivo, human; settings: administration with a high fat meal
From the text: In the context of treatment of a single individual, a steady state concentration may be expected to fluctuate from day-to-day with variations in the individual's diet, level activity, state of health, co-administration of other medications, and the like. DG-031 is preferably administered with food to improve adsorption. […] In this context, the steady state concentration for an individual refers to an average concentration taken at multiple time points, to adjust for such fluctuation.

[2] = system: LTE4 in urine; experiment: Study DG-031-201: LTE4 in urine; format: in vivo, human
Experimental: (§1) Patients who met the study eligebility criteria were enrolled and randomized into 3 different dose-level groups: (1) 64 patients on 250 mg/day therapy with DG-031 (250 mg q.d.), vs placebo; (2) 64 patients on 500 mg/day therapy with DG-031 (250 mg b.i.d.) vs placebo; and (3) 63 patients on 750 mg/day therapy with DG-031 (250 mg t.i.d.) vs placebo. […] All patients received 3 tablets per day. Treatment periods, 4 weeks in duration each, were separated by a 2-week washout period. The placebo tablets were identical in shape, color, form and taste to the active tablets except that they contained no active drug ingredients. Treatment with DG-031 or placebo was in addition to the subject's standard care, including all medications and treatment plan as prescribed by the subject's cardiologist prior to enrolment. A total of 191 subjects were enrolled, with 172 completing all 8 visits or 8 patients short of the target of 180 patients.
(§2) The primary objective was to determine whether the FLAP inhibitor has a statistically significant effect, compared to placebo, on one or more biomarkers of MI risk, including: (1) ionomycin-induced LTB4 and MPO release by neutrophils ex vivo; (2) MPO, CRP, N-tyrosine, Lp-PLA2 or amyloid A in serum, or (3) LTE4 in urine. The secondary objective was to determine whether the effect of DG-031 was dose-dependent. The tertiary objective was to assess other biomarkers (See Results). Evaluation of safety and tolerability of the drug was also a primary endpoint.
All data were analyzed according to a pre-established statistical analysis plan (SAP) and by intention-to-treat (ITT). Each arm of the study, as well as pooled sets (combining dose levels), was considered for the primary analysis. Each such set is an AB/BA cross-over design and in the primary analysis of efficacy, the levels of biomarkers of MI risk at the end of the treatment periods (visits 4 and 7) were used as primary response variables. The difference between DG-031 and placebo treatment was the primary outcome, assessed separately for each of the biomarkers. […]

[3] = Pharmacokinetics of DG-031 dosing schedules, plasma concentration (studies 201 and 203); settings: for Peak concentration with trough concentration of 3 μg/mL maintained: steady-state, both half-lives
Experimental: Measurements of plasma DG-031 can be carried out by methods that are standard in the art. […] The DG-031 is then measured by liquid chromatography and/or mass spectrometry and the measured concentration is compared to a standard curve.
After completion of the double-blind study reported herein an open-label randomized study was conducted in an independent cohort but with same eligibility criteria and measuring several of the same biomarkers. […] Each patient was on drug for 8 days; there was no placebo group. The primary objective of this study was to determine pharmacokinetic parameters of DG-031 in three different doses, as well as to assess the pharmacokinetic/pharmacodynamic relationship between DG-031, LTB4 and MPO.
The additional phase II study was conducted to compare a 750 mg total daily dose administered in a BID or TID dosing regimen.

[4] = system: MPO release by ionomycin-activated neutrophils ex vivo; experiment: Study DG-031-201: MPO in whole blood ex vivo after ionomycin activation; parameters: species or system human; settings: p=0.02
Experimental: as §1, with “patients. […]” for “patients.”
All data were analyzed according to a pre-established statistical analysis plan (SAP) and by intention-to-treat (ITT). […] The difference between DG-031 and placebo treatment was the primary outcome, assessed separately for each of the biomarkers. […]

[5] = system: LTB4 produced by ionomycin-activated neutrophils ex vivo; experiment: Study DG-031-201: LTB4 in whole blood ex vivo after ionomycin activation (ELISA); parameters: species or system human
Experimental: as §1, §2
All data were analyzed according to a pre-established statistical analysis plan (SAP) and by intention-to-treat (ITT). Each arm of the study, as well as pooled sets (combining dose levels), was considered for the primary analysis. Each such set is an AB/BA cross-over design and in the primary analysis of efficacy, the levels of biomarkers of MI risk at the end of the treatment periods (visits 4 and 7) were used as primary response variables. The difference between DG-031 and placebo treatment was the primary outcome, assessed separately for each of the biomarkers. Treatment effect was tested using a two-sample t-test on the period differences for suitably transformed response variables, under an assumption of normality of the transformed data. We report treatment effect as one half of the observed mean differences in the two-sample t-test, with a 95% CI. No pre-tests for carry-over effect were performed as a part of the primary analysis. Tests for carry-over were done and are reported separately from results of primary analysis. All hypotheses were tested at a two-sided nominal significance level of 0.05 and p-values based on t-tests are reported. In addition, for the primary efficacy endpoints where the effects of the two highest doses on 10 primary variables were studied, a randomization test was performed which corrects for multiple testing and ensures that the key results are not affected by distributional concerns. In particular, 1 million permutations of the patients into the different study tracks were performed, generating a reference distribution for the maximum of the 10 t-statistics of the biomarkers under the null hypothesis of no drug effect. By comparing the observed t-statistic of each of the 10 biomarkers to this reference distribution, empirical p-values were computed. As was stated in the SAP prior to unblinding, it was considered likely that experimental manipulations would alter the effect of the drug on two of the primary markers; this was indeed the case and we are only reporting directly on 8 of the 10 primary markers but all 10 are included in the randomization test.
Biomarker measurements: The ELISA and mass spectrometry assays used are described in the following references: Profita et al., J Pharmacol Exp Ther. 300:868-75, 2002; Roberts et al., Clin Chem. 47:418-25, 2001; Dada et al., Expert Rev Mol Diagn. […]

[6] = system: MCP-1; experiment: Study DG-031-201: MCP-1; format: in vivo, human; settings: difference visit 2 to visit 5; 500 and 750 mg/day vs placebo cohort
Experimental: as §1
All data were analyzed according to a pre-established statistical analysis plan (SAP) and by intention-to-treat (ITT). Each arm of the study, as well as pooled sets (combining dose levels), was considered for the primary analysis. […] The difference between DG-031 and placebo treatment was the primary outcome, assessed separately for each of the biomarkers. […]

For `O=C(O)[C@@H](c1ccc(OCc2ccc3ccccc3n2)cc1)C1CCCC1` [DG-031, (R)-(+)-alpha-cyclopentyl-4-(2-quinolinylmethoxy)-Benzeneacetic acid], the “Increase in AUC” value [1] was 30%, the “Increase in Cmax” value [1] was 150% and the Tmax [1] was “no effect”. The half-life [1] was “shorter half-life”, the “Carry-over effect, LTE4 in urine” value ([2]; difference visit 2 to visit 5, 500 and 750 mg/day vs placebo cohort) was −0.06 and the “Increase of urine levels of LTE4” value ([2]; highest dose, [15%,40%], p<0.001) was 27%. The “Increase of urine levels of LTE4” value ([2]; pooled dose set 500 mg and 750 mg, [13%,30%]) was 21%, the “Minimum plasma concentration maintained” value ([3]; 250 mg TID) was about 7 µM and the “Peak concentrations of DG-031” value ([3]; 250 mg TID) was “about 10 μg/ml and ~28 μM”. The “Steady state Cmin plasma concentration” value ([3]; 250 mg TID) was 2000 to 3000 ng/mL, the “Calculated AUC24h” value ([3]; 250 mg TID vs 375 mg BID, study 203) was “somewhat higher for 250 mg TID than for 375 mg BID” and the Cmin ([3]; 375 mg BID vs 250 mg TID, study 203) was “slightly higher for the TID dosing regimen”. The “Peak concentration with trough concentration of 3 μg/mL maintained” value ([3]; BID doses) was 14 µg/mL, the “Peak concentration required to keep steady-state concentration above 3 μg/ml” value ([3]; BID dosing, calculated for a 2.5 hour half-life (FIG. 4)) was about 30 µg/mL and the “Peak concentration with trough concentration of 3 μg/mL maintained” value ([3]; TID doses) was 7 to 8 µg/mL. The “Peak plasma concentration required to keep steady-state concentration above 3 μg/ml” value ([3]; TID dosing, calculated for a 2.5 hour half-life) was about 11 µg/mL, the “Drug required with TID dosing relative to BID schedule to maintain the minimum concentration” value ([3]; in vivo) was “about 70%” and the “Share of total exposure of the fraction with the slower half-life” value ([3]; in vivo) was “about 25%”. For the same compound, the “Maximum reduction in MPO production” value ([4]; 750 mg/day, [2%,21%]) was 12%, the “Inhibition of MPO release” value ([4]; combined dose groups of 500 mg and 750 mg TDD) was “about 12%” and the “Reduction of capacity for LTB4 production” value (“Reduction of capacity” below) ([5]; 250 mg BID dose group, p=0.1) was 18%. For the same compound, the LTB4 production ([5]; 250 mg BID, Study 201, NS) was −18%, the “Reduction of capacity” value ([5]; 250 mg QD dose group, p=0.22) was 13% and the LTB4 production ([5]; 250 mg QD, Study 201, 64 subjects, NS) was −13%. The “Reduction of capacity” value ([5]; 250 mg TID dose group, p=0.008) was 34%, the LTB4 production ([5]; 250 mg TID, St. 201, p = 0.008) was −34% (St. 201) and the “Reduction of capacity” value ([5]; 250 mg TID, at steady state Cmin, [0%,56%], p=0.02) was 30%. The “Reduction of capacity” value ([5]; combined dose groups of 500 mg and 750 mg TDD, p=0.003) was “about 26%” and the “Carry-over effect, MCP-1” value [6] was 0.07.
